The source of these data is PubChem BioAssay AID588383 (NMMLSC, 2011).

Each structure is given as a SMILES string. Active and inactive are the calls of the source.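 How the source made its calls: active means half-effect concentration at most 10 µM with response change of 30% or more and an acceptable curve fit; inactive means the rest.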

This experiment deals with GTPase HRas (Homo sapiens) (UniProt P01112). The experiment can be described thus: wild-type Ras fluorescent GTP binding inhibition – biochemical, multiplex bead flow cytometry, round 1, selectivity assay for Cdc42 probe extension project, SAR follow-up (AID 588383). The following applies: GST-Ras wt beads, Bodipy-FL-GTP binding; for % response, lower = inhibition: at 100 µM (top of the series).
Sequence of GTPase HRas (Homo sapiens) (P01112 whole entry, looked up): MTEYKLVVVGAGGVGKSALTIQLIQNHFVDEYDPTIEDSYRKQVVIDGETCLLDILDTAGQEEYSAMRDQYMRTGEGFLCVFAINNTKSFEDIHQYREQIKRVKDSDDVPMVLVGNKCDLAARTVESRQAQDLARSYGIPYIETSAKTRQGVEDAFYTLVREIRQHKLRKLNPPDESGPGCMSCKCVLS

Consider `CC1(C)Cc2c(sc(NC(=S)NC(=O)c3ccccc3)c2C(=O)O)CO1`, for which the EC50 is 78 nM.

For `COc1ccc(C2CC(c3ccccc3)=NN2c2ccc(S(N)(=O)=O)cc2)cc1` (centres undefined), the “% response, lower = inhibition” value was “inactive”.

Regarding `NS(=O)(=O)c1ccc(N2N=C(c3ccccc3)CC2c2ccccc2)cc1` (centres undefined), the “% response, lower = inhibition” value is “inactive”.

`O=C(C#Cc1ccccc1)c1cccc([N+](=O)[O-])c1`: the “% response, lower = inhibition” value is “inactive”.
